This passage reports IC50 results from patent publication US9884063B2, “Amido-substituted azole compounds” (Bayer Pharma Aktiengesellschaft, priority 2014, dated 2018).

SMILES strings stand for the structures. pIC50: −log10 of the molar value. Bounds are passed on as bounds.

A word on the pIC50: it is the IC50 on a negative log10 scale, so that one unit is a factor of ten. A high value points to a low IC50.

The test system of assay [1] is wildtype Wnt signaling cascade. As to the kind of experiment: HEK293 TOP Assay (Super TopFlash luciferase reporter, Wnt-3a stimulated). Format: cell-based. The conditions noted are these: Homo sapiens, HEK293, 16 h. An outline of the steps: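 Compounds (50 μM down to 15 nM, 3.16-fold steps, in CAFTY buffer pH 7.4, 2 mM Ca2+, 0.01% BSA) tested in parallel on TOP and FOP HEK293 reporter lines to define selective wildtype Wnt inhibition. Pathway driven by recombinant human Wnt-3a applied at 2500–5 ng/ml in two-fold dilutions.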
Background: Reporter assays use an easily measured gene product as a stand-in for the process of interest.

The next assay deals with T1, TNKS2 (Homo sapiens, UniProt Q9H2K2).
T1 sequence (Q9H2K2 1-1166): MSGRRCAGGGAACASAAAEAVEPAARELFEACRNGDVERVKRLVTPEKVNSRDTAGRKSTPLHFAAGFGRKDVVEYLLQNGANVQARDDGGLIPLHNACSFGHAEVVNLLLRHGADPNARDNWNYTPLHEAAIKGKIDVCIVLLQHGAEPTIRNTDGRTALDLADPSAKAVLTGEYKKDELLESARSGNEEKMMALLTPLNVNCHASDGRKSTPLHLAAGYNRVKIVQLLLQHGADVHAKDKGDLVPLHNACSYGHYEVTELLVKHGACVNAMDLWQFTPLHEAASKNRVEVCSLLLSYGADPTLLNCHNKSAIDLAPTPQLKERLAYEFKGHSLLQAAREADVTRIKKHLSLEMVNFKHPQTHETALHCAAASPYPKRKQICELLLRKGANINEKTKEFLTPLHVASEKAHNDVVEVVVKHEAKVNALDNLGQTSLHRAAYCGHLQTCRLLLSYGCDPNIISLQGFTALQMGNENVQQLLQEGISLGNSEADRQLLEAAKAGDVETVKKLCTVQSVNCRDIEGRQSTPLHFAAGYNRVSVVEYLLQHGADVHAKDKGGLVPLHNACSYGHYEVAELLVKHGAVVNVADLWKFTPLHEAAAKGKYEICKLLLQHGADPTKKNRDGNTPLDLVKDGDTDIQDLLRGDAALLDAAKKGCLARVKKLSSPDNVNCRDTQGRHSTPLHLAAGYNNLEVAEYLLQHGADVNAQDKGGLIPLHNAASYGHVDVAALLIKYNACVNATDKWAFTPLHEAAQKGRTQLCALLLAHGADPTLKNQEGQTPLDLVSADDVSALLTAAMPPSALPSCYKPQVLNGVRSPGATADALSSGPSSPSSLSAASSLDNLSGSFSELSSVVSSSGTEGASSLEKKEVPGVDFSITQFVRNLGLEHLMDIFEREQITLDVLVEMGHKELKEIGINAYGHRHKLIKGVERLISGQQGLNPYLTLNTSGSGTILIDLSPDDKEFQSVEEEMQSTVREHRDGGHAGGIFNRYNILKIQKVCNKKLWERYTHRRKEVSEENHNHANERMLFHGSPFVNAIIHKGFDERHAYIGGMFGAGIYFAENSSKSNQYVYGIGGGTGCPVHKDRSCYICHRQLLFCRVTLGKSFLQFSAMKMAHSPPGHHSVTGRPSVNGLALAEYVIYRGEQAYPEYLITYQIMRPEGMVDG
As to the kind of experiment: Modified TNKS2 Assay 2 (auto-parsylation, [3H]-NAD+ SPA). Type of assay: biochemical. The following applies: 6 nM TNKS2, 96 well. Here is the method:
The potency of selected compounds according to the invention was assessed applying an modified in vitro inhibition assay. Here, the TNKS2 catalyzed NAD^+-dependent ribosylation of the enzyme itself (auto-parsylation) was detected using [^3H]-NAD^+ as substrate and applying the scintillation proximity assay (SPA) method to detect tritium-labeled, parsylated TNKS2. The intensity of the readout signal is proportional to the incorporated [^3H]-NAD^+. Inhibition of TNKS2 leads to a decreased incorporation of [^3H]-NAD^+ and consequently to a lower readout signal intensity. The concentration of a test compound which inhibits the enzyme activity by 50% (corresponds to half of the normed readout signal intensity) is reported as IC50.
The assay was conducted in a 96 well MTP format with the identical TNKS2 enzyme sample and NAD^+ sample as in the histone ribosylation assay with the following modifications: TNKS2 enzyme sample was diluted with a modified assay buffer (50 mM MES pH 7.0, 1 mM DTT, 0.01% Triton X-100) to a final concentration of 6 nM TNKS2 and 10×NAD^+ solution was diluted with the modified assay buffer (s. above) to a final 0.445×NAD^+ solution doped with 100 Bq/ul [^3H]-NAD^+ [Catalog #NET443H050UC, Perkin Elmer, Waltham, Mass., USA]. Substrate solution (10 ul) was incubated with different test compound concentrations (2.5 ul in 10% DMSO in modified assay buffer) or control (2.5 ul 10% DMSO in modified assay buffer only) and enzyme (10 ul) over night at room temperature. Incorporated tritium was measured after addition of 50 ul SPA beads (1 mg/ml) [Catalog #RPNQ0095 20 mg/ml, Perkin Elmer, Waltham, Mass., USA; diluted 1:10 with Dulbecco's phosphate buffered saline, PBS Catalog #D8537, Sigma-Aldrich, Steinheim, Germany] and detection of the photon emission with a beta count plate reader [Wallac MicroBeta®, Perkin Elmer, Waltham, Mass., USA].

Where [2] appears, read: HEK293 TOP reporter cell line, Wnt-3a at EC50, 16 hours incubation, compound dilution series 50 μM to 15 nM.
[3] abbreviates: HEK293 TOP reporter cells, Wnt3a at EC50, 16 hours, luciferase.

As to `CC1CCN(CCNC(=O)c2nc[nH]c2C(=O)Nc2ccc(NC(=O)c3ccc(F)cc3Cl)cc2)CC1` [Example 126, N^5-{4-[(2-chloro-4-fluorobenzoyl)amino]phenyl}-N^4-[2-(4-methylpiperidin-1-yl)ethyl]-1H-imidazole-4,5-dicarboxamide], the pIC50 in assay [1] (setting [2]) was 7.40; at TNKS2, 8.15.
As for `CCOc1ccc(C(=O)Nc2ccc(NC(=O)c3[nH]cnc3C(=O)NC)cc2)c(Cl)c1` [Example 250, N^5-{4-[(2-chloro-4-ethoxybenzoyl)amino]phenyl}-N^4-methyl-1H-imidazole-4,5-dicarboxamide], the pIC50 in assay [1] (setting [2]) is 6.04; on TNKS2, 6.66.
In the case of `CNC(=O)c1nc[nH]c1C(=O)Nc1ccc(NC(=O)c2ccc(N(C)C)cc2Cl)cc1` [Example 4, N^5-(4-{[2-chloro-4-(dimethylamino)benzoyl]amino}phenyl)-N^4-methyl-1H-imidazole-4,5-dicarboxamide], the negative logarithm of the IC50 (pIC50) was 6.04 in assay [1] (setting [2]), 6.04 in assay [1] (setting [3]) and less than 5.00 against TNKS2.
With `O=C(Nc1ccc(NC(=O)c2nc[nH]c2C(=O)NCCF)cc1)c1ccccc1Cl` [Example 166, N^4-{4-[(2-chlorobenzoyl)amino]phenyl}-N^5-(2-fluoroethyl)-1H-imidazole-4,5-dicarboxamide], the values for the pIC50 (in assay [1] (setting [2]); against TNKS2) were 6.28 and 6.48, respectively.
For `CNC(=O)c1nc[nH]c1C(=O)Nc1ccc(NC(=O)c2ccc(N3CCCC3)cc2F)cc1` [Example 3, N^5-(4-{[2-fluoro-4-(pyrrolidin-1-yl)benzoyl]amino}phenyl)-N^4-methyl-1H-imidazole-4,5-dicarboxamide], the pIC50 in assay [1] (setting [2]) and in assay [1] (setting [3]) was 5.01 throughout.
With `CNC(=O)c1nc[nH]c1C(=O)Nc1ccc(NC(=O)c2cccc(Cl)c2Cl)cc1` [Example 1, N^5-{4-[(2,3-dichlorobenzoyl)amino]phenyl}-N^4-methyl-1H-imidazole-4,5-dicarboxamide], the negative logarithm of the IC50 (pIC50) in assay [1] (setting [2]) is 5.92; in assay [1] (setting [3]), 5.96; on TNKS2, 5.48.
On the same counts, the results for `CNC(=O)c1nc[nH]c1C(=O)Nc1ccc(NC(=O)c2ccccc2Cl)cc1` [Example 27, N^5-{4-[(2-chlorobenzoyl)amino]phenyl}-N^4-methyl-1H-imidazole-4,5-dicarboxamide] are 6.41, 6.47 and 6.28.
For `CCS(=N)(=O)c1ccc(C(=O)Nc2ccc(NC(=O)c3[nH]cnc3C(=O)NC)cc2)c(Cl)c1` (stereo not drawn) [Example 255, N^5-(4-{[2-chloro-4-(S-ethylsulfonimidoyl)benzoyl]amino}phenyl)-N^4-methyl-1H-imidazole-4,5-dicarboxamide], the pIC50 in assay [1] (setting [2]) was 5.91; at TNKS2 it was 6.19.
`O=C(Nc1ccc(NC(=O)c2nc[nH]c2C(=O)NCCCCN2CCCCC2)cc1)c1ccccc1Cl` [Example 189, N^4-{4-[(2-chlorobenzoyl)amino]phenyl}-N^5-[4-(piperidin-1-yl)butyl]-1H-imidazole-4,5-dicarboxamide]: the pIC50 was 6.05 in assay [1] (setting [2]) and 6.59 against TNKS2.
The like results for `CNC(=O)c1nc[nH]c1C(=O)Nc1ccc(NC(=O)c2cc(OCCN3CCN(C)CC3)ccc2Cl)cc1` [Example 124, N^5-[4-({2-chloro-5-[2-(4-methylpiperazin-1-yl)ethoxy]benzoyl}amino)phenyl]-N^4-methyl-1H-imidazole-4,5-dicarboxamide] were, in that order, 4.30 and less than 5.00.
On to `CC(C)(C)CNC(=O)c1[nH]cnc1C(=O)Nc1ccc(NC(=O)c2ccccc2Cl)cc1` [Example 148, N^4-{4-[(2-chlorobenzoyl)amino]phenyl}-N^5-(2,2-dimethylpropyl)-1H-imidazole-4,5-dicarboxamide], for which the results for the pIC50 (in assay [1] (setting [2]); against TNKS2) were 5.76 and 5.96, respectively.
As to `O=C(Nc1ccc(NC(=O)c2nc[nH]c2C(=O)NCCN2CCCC(F)C2)cc1)c1ccc(F)cc1Cl` (stereo not drawn) [Example 226, N^4-{4-[(2-chloro-4-fluorobenzoyl)amino]phenyl}-N^5-[2-(3-fluoropiperidin-1-yl)ethyl]-1H-imidazole-4,5-dicarboxamide], the pIC50 in assay [1] (setting [2]) is 7.30; on TNKS2, 8.70.
On to `CC(C)NC(=O)c1ncoc1C(=O)Nc1ccc(NC(=O)c2ccc(F)cc2Cl)cc1` [Example 15, N^5-{4-[(2-chloro-4-fluorobenzoyl)amino]phenyl}-N^4-isopropyl-1,3-oxazole-4,5-dicarboxamide], for which the pIC50 in assay [1] (setting [2]) and in assay [1] (setting [3]) was 5.90 in each case.
In the case of `CCC(C)NC(=O)c1ncoc1C(=O)Nc1ccc(NC(=O)c2ccc(F)cc2Cl)cc1` (stereo not drawn) [Example 7, N^4-sec-butyl-N^5-{4-[(2-chloro-4-fluorobenzoyl)amino]phenyl}-1,3-oxazole-4,5-dicarboxamide], the pIC50 in assay [1] (setting [2]) and in assay [1] (setting [3]) was 5.25 throughout.
For `CNC(=O)c1nc[nH]c1C(=O)Nc1ccc(NC(=O)c2c(-c3ccccc3)nn(C)c2Cl)cc1` [Example 17, N^5-(4-{[(5-chloro-1-methyl-3-phenyl-1H-pyrazol-4-yl)carbonyl]amino}phenyl)-N^4-methyl-1H-imidazole-4,5-dicarboxamide], the negative-log IC50 (pIC50) in assay [1] (setting [2]) and in assay [1] (setting [3]) was 5.45 throughout.
Regarding `COC(=O)c1ncoc1C(=O)Nc1ccc(NC(=O)c2ccc(F)cc2Cl)cc1` [Example 14, Methyl 5-({4-[(2-chloro-4-fluorobenzoyl)amino]phenyl}carbamoyl)-1,3-oxazole-4-carboxylate], the pIC50 was 5.03 in assay [1] (setting [2]) and 4.94 in assay [1] (setting [3]).
The compound `CNC(=O)c1[nH]cnc1C(=O)Nc1ccc(NC(=O)c2cc(Cl)sc2Cl)cc1` [Example 213, N^4-(4-{[(2,5-dichloro-3-thienyl)carbonyl]amino}phenyl)-N^5-methyl-1H-imidazole-4,5-dicarboxamide] gave a pIC50 in assay [1] (setting [2]) of 6.34.
As to `CNC(=O)c1nc[nH]c1C(=O)Nc1ccc(NC(=O)c2c(C)cc(F)cc2C)cc1` [Example 23, N^5-{4-[(4-fluoro-2,6-dimethylbenzoyl)amino]phenyl}-N^4-methyl-1H-imidazole-4,5-dicarboxamide], the pIC50 in assay [1] (setting [2]) and in assay [1] (setting [3]) was 6.18 in each case.
Turning to `CC(NC(=O)c1ncoc1C(=O)Nc1ccc(NC(=O)c2ccc(F)cc2Cl)cc1)c1ccccc1` (stereo not drawn) [Example 8, N^5-{4-[(2-chloro-4-fluorobenzoyl)amino]phenyl}-N^4-(1-phenylethyl)-1,3-oxazole-4,5-dicarboxamide], the pIC50 in assay [1] (setting [2]) and in assay [1] (setting [3]) was 5.34 in each case.
In the case of `O=C(Nc1ccc(NC(=O)c2[nH]cnc2C(=O)NCc2ccccc2)cc1)c1ccc(F)cc1Cl` [Example 18, N^4-benzyl-N^5-{4-[(2-chloro-4-fluorobenzoyl)amino]phenyl}-1H-imidazole-4,5-dicarboxamide], the figures for the pIC50 in assay [1] (setting [2]) and in assay [1] (setting [3]) were 6.39 and 6.47, respectively.
